# Experimental data from ChEMBL document CHEMBL6087415, “Discovery of new fungal jumonji H3K27 demethylase inhibitors for the treatment of Cryptococcus neoformans and Candida auris infections” (Eur J Med Chem, 2025).
# Activity calls are given as the source filed them. The calls are words filed in the database; no cut-off is given here.
# Legend:
# Cryptococcus neoformans [1] = experiment: Antifungal activity against Cryptococcus neoformans H99 assessed as reduction in fungal growth; assay type: functional
# [Candida] auris [2] = Antifungal activity against Candida auris ATCC 15448 assessed as reduction in fungal growth; assay type: functional; conditions: Candidozyma auris
# [Candida] auris [3] = Antifungal activity against Candida auris 0029 assessed as reduction in fungal growth; assay type: functional; conditions: Candidozyma auris
# [Candida] auris [4] = Antibiofilm activity against Candida auris 0029 assessed as inhibition of biofilm formation at 4 to 64 microg/ml incubated for 24 hrs by XTT reduction assay; assay type: functional, organism-based; conditions: Candidozyma auris, dose 4-64 µg/ml
# [Candida] auris [5] = Effect on sterol composition in Candida auris 0029 assessed as ergosterol content at 1 microg/ml measured after 24 hrs by GC-MS analysis (reference value: 100 %); assay type: functional, Candidozyma auris; conditions: dose 1 µg/ml
# [Candida] auris [6] = Antifungal activity against Candida auris 0029 assessed as inhibition of cell growth at 16 microg/ml measured for 72 hrs; assay type: functional; conditions: Candidozyma auris
# [Candida] auris [7] = Antibiofilm activity against Candida auris 0029 assessed as appearance of surface collapse at 4 to 16 microg/ml measured for 48 hrs by SEM analysis; assay type: functional, organism-based; conditions: Candidozyma auris, dose 4-16 µg/ml
# Cryptococcus neoformans [8] = experiment: Induction of morphological changes in Cryptococcus neoformans H99 assessed as sparse capsule at 1 to 4 microg/ml by TEM analysis; assay type: functional, organism-based; conditions: dose 1-4 µg/ml
# [Candida] auris [9] = Effect on sterol composition in Candida auris 0029 assessed as other sterols content at 1 microg/ml measured after 24 hrs by GC-MS analysis; assay type: functional, Candidozyma auris; conditions: dose 1 µg/ml
# [10] = Metabolic stability in mouse liver microsome assessed as clearance; assay type: ADME; conditions: liver microsomes, read-out: CLH
# Cryptococcus neoformans [11] = experiment: Antibiofilm activity against Cryptococcus neoformans H99 assessed as inhibition of biofilm formation at 1 microg/ml incubated for 24 hrs by XTT reduction assay; assay type: functional, organism-based; conditions: dose 1.0 µg/ml
# Cryptococcus neoformans [12] = experiment: Antifungal activity against Cryptococcus neoformans H99 assessed as reduction in fungal growth incubated for 72 hrs in presence of 80 uM Fe2+; assay type: functional
# Cryptococcus neoformans [13] = experiment: Antibiofilm activity against Cryptococcus neoformans H99 assessed as appearance of surface collapse at 4 to 16 microg/ml measured for 48 hrs by SEM analysis; assay type: functional, organism-based; conditions: dose 4-16 µg/ml
# Cryptococcus neoformans [14] = experiment: Antifungal activity against Cryptococcus neoformans H99 assessed as inhibition of cell growth at 4 microg/ml measured for 72 hrs; assay type: functional, organism-based; conditions: dose 4.0 µg/ml
# Cryptococcus neoformans [15] = experiment: Antibiofilm activity against Cryptococcus neoformans H99 assessed as appearance of blurred capsule at 4 microg/ml measured for 48 hrs by SEM analysis; assay type: functional, organism-based; conditions: dose 4.0 µg/ml
# Cryptococcus neoformans [16] = experiment: Antifungal activity against Cryptococcus neoformans H99 assessed as reduction in fungal growth incubated for 72 hrs in presence of 10 uM Fe2+; assay type: functional
# [Candida] auris [17] = Antifungal activity against Candida auris 0029 infected in ICR mouse assessed as reduction in fungal burden in kidney at 2 to 5 mg/kg, ip administered for 5 days; assay type: functional, organism-based; conditions: Candidozyma auris, dose 2-5 mg/kg, time 5.0 day
# Candida albicans = experiment: Synergistic antifungal activity against Candida albicans assessed as inhibition of fungal growth incubated in presence of fluconazole; assay type: functional, organism-based
# Cryptococcus neoformans [18] = experiment: Antifungal activity against Cryptococcus neoformans H99 assessed as reduction in fungal growth incubated for 72 hrs in presence of 1 uM Fe2+; assay type: functional
# [19] = Solubility of compound in MeOH/H2O at pH 7 by HPLC analysis; assay type: physicochemical
# Cryptococcus neoformans [20] = experiment: Antibiofilm activity against Cryptococcus neoformans H99 assessed as inhibition of biofilm formation upto […] microg/ml incubated for 24 hrs by XTT reduction assay; assay type: functional, organism-based; conditions: dose <= 64.0 µg/ml
# Cryptococcus neoformans [21] = experiment: Induction of morphological changes in Cryptococcus neoformans H99 assessed as damaged cell membrane at 1 to 4 microg/ml by TEM analysis; assay type: functional, organism-based; conditions: dose 1-4 µg/ml
# Cryptococcus neoformans [22] = experiment: Antifungal activity against Cryptococcus neoformans H99 assessed as reduction in fungal growth incubated for 72 hrs in presence of 5 uM Fe2+; assay type: functional
# Cryptococcus neoformans [23] = experiment: Antibiofilm activity against Cryptococcus neoformans H99 assessed as inhibition of capsule formation at 1 microg/ml incubated for 48 hrs by laser confocal microscopic analysis; assay type: functional, organism-based; conditions: dose 1.0 µg/ml
# Cryptococcus neoformans [24] = experiment: Fungicidal activity against Cryptococcus neoformans H99; assay type: functional
# [Candida] auris [25] = Antibiofilm activity against Candida auris 0029 assessed as inhibition of biofilm formation upto […] microg/ml incubated for 24 hrs by XTT reduction assay; assay type: functional, organism-based; conditions: Candidozyma auris, dose <= 64.0 µg/ml
# [26] = Inhibition of Cryptococcus neoformans H99 JMJD3 by absorbance based analysis
# [27] = Cytotoxicity against HUVEC cells; assay type: toxicity, cell-based; conditions: human
# Cryptococcus neoformans [28] = experiment: Antifungal activity against Cryptococcus neoformans H99 infected in ICR mouse assessed as reduction in fungal burden in brain at 2 to 5 mg/kg, ip administered for 5 days; assay type: functional, organism-based; conditions: dose 2-5 mg/kg, time 5.0 day
# Cryptococcus neoformans [29] = experiment: Antifungal activity against Cryptococcus neoformans H99 assessed as reduction in fungal growth incubated for 72 hrs in presence of 40 uM Fe2+; assay type: functional
# [Candida] auris [30] = Induction of morphological changes in Candida auris 0029 assessed as cell wall damage by TEM analysis; assay type: functional, organism-based; conditions: Candidozyma auris
# [Candida] auris [31] = Fungicidal activity against Candida auris 0029; assay type: functional; conditions: Candidozyma auris
# [32] = Metabolic stability in mouse liver microsome assessed as half life; assay type: ADME; conditions: liver microsomes
# [33] = Inhibition of Candida auris 0029 JMJD3 by absorbance based analysis; parameters: species or system Candidozyma auris
# [34] = Hemolytic activity in rabbit erythrocytes assessed as hemolysis at 10 to 100 uM relative to control; assay type: toxicity, cell-based, Oryctolagus cuniculus, Erythrocyte; conditions: dose 10-100 µM, read-out: Activity
# Cryptococcus neoformans [35] = experiment: Effect on sterol composition in Cryptococcus neoformans H99 assessed as other sterols content at 1 microg/ml measured after 24 hrs by GC-MS analysis (reference value: 41.47%); assay type: functional; conditions: dose 1 µg/ml
# [Candida] auris [36] = Synergistic antifungal activity against Candida auris 0029 assessed as inhibition of fungal growth incubated in presence of fluconazole; assay type: functional, organism-based; conditions: Candidozyma auris
# Cryptococcus neoformans [37] = experiment: Effect on sterol composition in Cryptococcus neoformans H99 assessed as ergosterol content at 1 microg/ml measured after 24 hrs by GC-MS analysis (reference value: 58.53%); assay type: functional; conditions: dose 1 µg/ml
# Cryptococcus neoformans [38] = experiment: Antifungal activity against Cryptococcus neoformans H99 assessed as reduction in fungal growth incubated for 72 hrs in presence of 20 uM Fe2+; assay type: functional
# [Candida] auris [39] = Induction of morphological changes in Candida auris 0029 assessed as cell membrane damage by TEM analysis; assay type: functional, organism-based; conditions: Candidozyma auris
# [Candida] auris [40] = Antibiofilm activity against Candida auris 0029 assessed as inhibition of biofilm formation at 64 microg/ml incubated for 24 hrs by XTT reduction assay; assay type: functional; conditions: Candidozyma auris
structure (smiles),measurement,setting,value
Clc1ccc(N/N=C(\c2ccc(Cl)cc2)c2ccccn2)cc1,MIC80,Cryptococcus neoformans [1],32 µg/mL
same,MIC80,[Candida] auris [2],> 64 µg/mL
same,MIC80,[Candida] auris [3],> 64 µg/mL
O=c1n(-c2ccccn2)c2ccccc2n1-c1ccc(Cl)cn1,MIC80,Cryptococcus neoformans [1],64 µg/mL
same,MIC80,[Candida] auris [2],> 64 µg/mL
same,MIC80,[Candida] auris [3],> 64 µg/mL
COc1ccc(NN=C(c2ccccn2)c2ccccn2)nc1,Activity,[Candida] auris [4],Active
same,Activity,[Candida] auris [5],56.93%
same,inhibition at 16 µg/mL,[Candida] auris [6],100%
same,Activity,[Candida] auris [7],Active
same,Activity,Cryptococcus neoformans [8],Active
same,Activity,[Candida] auris [9],43.07%
same,CLint scaled,[10],108 mL/min/kg
same,Activity,Cryptococcus neoformans [11],Active
same,MIC,Cryptococcus neoformans [12],32 µg/mL
same,MIC80,Cryptococcus neoformans [1],0.5 µg/mL
same,Activity,Cryptococcus neoformans [13],Active
same,Activity,Cryptococcus neoformans [14],Active
same,Activity,Cryptococcus neoformans [15],Active
same,MIC,Cryptococcus neoformans [16],8 µg/mL
same,Activity,[Candida] auris [17],Active
same,Activity,Candida albicans,inactive
same,MIC,Cryptococcus neoformans [18],2 µg/mL
same,solubility,[19],79.2 µg/mL
same,Activity,Cryptococcus neoformans [20],Active
same,Activity,Cryptococcus neoformans [21],Active
same,MIC,Cryptococcus neoformans [22],4 µg/mL
same,Activity,Cryptococcus neoformans [23],Active
same,MFC,Cryptococcus neoformans [24],8 µg/mL
same,Activity,[Candida] auris [25],Active
same,IC50,[26],134 nM
same,IC50,[27],246 nM
same,Activity,Cryptococcus neoformans [28],Active
same,MIC80,[Candida] auris [2],0.125 µg/mL
same,MIC,Cryptococcus neoformans [29],16 µg/mL
same,Activity,[Candida] auris [30],Active
same,MFC,[Candida] auris [31],64 µg/mL
same,half-life,[32],50.6 min
same,IC50,[33],12 nM
same,hemolysis at 100 µM,[34],< 3%
same,MIC80,[Candida] auris [3],2 µg/mL
same,Activity,Cryptococcus neoformans [35],41.52%
same,Activity,[Candida] auris [36],inactive
same,Activity,Cryptococcus neoformans [37],43.82%
same,MIC,Cryptococcus neoformans [38],16 µg/mL
same,Activity,[Candida] auris [39],Active
Fc1ccc(N/N=C(\c2ccccc2)c2ccccn2)cc1,MIC80,Cryptococcus neoformans [1],32 µg/mL
same,MIC80,[Candida] auris [2],8 µg/mL
same,MIC80,[Candida] auris [3],32 µg/mL
Cc1ccc(NC(=O)C(c2ccccc2)c2ccccn2)nc1 (stereo unspecified),MIC80,Cryptococcus neoformans [1],32 µg/mL
same,MIC80,[Candida] auris [2],64 µg/mL
same,MIC80,[Candida] auris [3],> 64 µg/mL
Clc1ccc(N/N=C(\c2ccccc2)c2ccccn2)nc1,inhibition at 64 µg/mL,[Candida] auris [40],100%
same,inhibition at 16 µg/mL,[Candida] auris [6],100%
same,CLint scaled,[10],159 mL/min/kg
same,Activity,Cryptococcus neoformans [11],inactive
same,MIC,Cryptococcus neoformans [12],64 µg/mL
same,MIC80,Cryptococcus neoformans [1],0.5 µg/mL
same,Activity,Cryptococcus neoformans [14],Active
same,MIC,Cryptococcus neoformans [16],8 µg/mL
same,Activity,Candida albicans,inactive
same,MIC,Cryptococcus neoformans [18],1 µg/mL
same,solubility,[19],0.54 µg/mL
same,Activity,Cryptococcus neoformans [20],Active
same,MIC,Cryptococcus neoformans [22],4 µg/mL
same,Activity,Cryptococcus neoformans [23],Active
same,MFC,Cryptococcus neoformans [24],16 µg/mL
same,Activity,[Candida] auris [25],Active
same,IC50,[26],168 nM
same,IC50,[27],79 nM
same,MIC80,[Candida] auris [2],0.125 µg/mL
same,MIC,Cryptococcus neoformans [29],64 µg/mL
same,MFC,[Candida] auris [31],256 µg/mL
same,half-life,[32],34.3 min
same,IC50,[33],5 nM
same,hemolysis at 100 µM,[34],< 3%
same,MIC80,[Candida] auris [3],2 µg/mL
same,Activity,[Candida] auris [36],inactive
same,MIC,Cryptococcus neoformans [38],8 µg/mL
Clc1ccc(/C(=N\Nc2ccc(Cl)cn2)c2ccccn2)cc1,MIC80,Cryptococcus neoformans [1],0.5 µg/mL
same,MIC80,[Candida] auris [2],1 µg/mL
same,MIC80,[Candida] auris [3],2 µg/mL
Cc1ccnc(-n2c(=O)n(-c3ccccn3)c3ccccc32)c1,MIC80,Cryptococcus neoformans [1],64 µg/mL
same,MIC80,[Candida] auris [2],> 64 µg/mL
same,MIC80,[Candida] auris [3],> 64 µg/mL
Clc1ccc(N/N=C(/c2ccc(Cl)cc2)c2ccccn2)cc1,MIC80,Cryptococcus neoformans [1],32 µg/mL
same,MIC80,[Candida] auris [2],64 µg/mL
same,MIC80,[Candida] auris [3],64 µg/mL
Clc1ccc(N/N=C(\c2ccccc2)c2ccccn2)cc1,MIC80,Cryptococcus neoformans [1],32 µg/mL
same,MIC80,[Candida] auris [2],> 64 µg/mL
same,MIC80,[Candida] auris [3],> 64 µg/mL
